Assay in all cases: Serine threonine kinase inhibitory activity ([γ-33P]ATP)
Type in all cases: biochemical

The target of experiment [1] is GSK-3β (Homo sapiens, UniProt P49841). The following applies: [γ-33P]ATP kinase panel; read-out: IC50 values against GSK-3β. The procedure: Inhibitory action on various purified proteins of serine, threonine kinases (p38α, JNK1, IKKβ, ASK1, TAK1, MEKK1, PKCθ, GSK-3β, PLK1, TTK, Aurora A, MEK1, MEK5, B-RAF, ERK1) was examined. As a reaction mixture, 37.5 μL of 25 mM HEPES (pH 7.5), 10 mM magnesium acetate, 1 mM DTT, each concentration of purified protein and a synthesis substrate were used. The mixture was reacted in the presence or absence of a test compound (2.5 μL/the reaction mixture) dissolved in DMSO at each concentration at room temperature for 5 min. […] After quenching the reaction, the amount of phosphorylated peptide was measured by Top-Count (Packard).

Experiment [2] addresses MEK1 (Homo sapiens, UniProt Q02750). The settings on record: read-out: 50% inhibitory activity against other kinases: MEK1. As to the method: (§1) Inhibitory action on various purified proteins of serine, threonine kinases (p38α, JNK1, IKKβ, ASK1, TAK1, MEKK1, PKCθ, GSK-3β, PLK1, TTK, Aurora A, MEK1, MEK5, B-RAF, ERK1) was examined. As a reaction mixture, 37.5 μL of 25 mM HEPES (pH 7.5), 10 mM magnesium acetate, 1 mM DTT, each concentration of purified protein and a synthesis substrate were used. The mixture was reacted in the presence or absence of a test compound (2.5 μL/the reaction mixture) dissolved in DMSO at each concentration at room temperature for 5 min. Further, 10 μL of a mixture of 2.5 μM ATP and 10 μCi/ml [γ-^33P]ATP (DAIICHI PURE CHEMICALS) was added and the mixture was reacted at room temperature for 30 min. After quenching the reaction, the amount of phosphorylated peptide was measured by Top-Count (Packard). The concentration of the test compound necessary for 50% inhibition (IC50 value) was calculated by PRISM 3.0 (GraphPad Software).

In experiment [3] the target is Aurora A (Homo sapiens, UniProt O14965). The settings on record: read-out: 50% inhibitory activity against other kinases: Aurora A. The procedure: as §1
In experiment [4] the target is ERK1 (Homo sapiens, UniProt P27361). The settings on record: read-out: 50% inhibitory activity against other kinases: ERK1. As to the method: as §1
ERK1, sequence (P27361 whole entry): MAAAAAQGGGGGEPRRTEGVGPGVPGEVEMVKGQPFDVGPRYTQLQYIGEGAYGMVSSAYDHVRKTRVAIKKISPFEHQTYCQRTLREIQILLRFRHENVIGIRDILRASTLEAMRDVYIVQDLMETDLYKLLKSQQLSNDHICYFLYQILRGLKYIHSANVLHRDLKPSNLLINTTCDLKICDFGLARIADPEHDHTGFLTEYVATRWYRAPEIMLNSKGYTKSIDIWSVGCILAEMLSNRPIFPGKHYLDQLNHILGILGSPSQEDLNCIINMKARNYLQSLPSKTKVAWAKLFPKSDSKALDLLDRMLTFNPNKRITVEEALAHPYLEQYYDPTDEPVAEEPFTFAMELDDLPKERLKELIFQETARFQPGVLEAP
Experiment [5] has as its target PLK1 (Homo sapiens, UniProt P53350). The following applies: read-out: 50% inhibitory activity against other kinases: PLK1. The procedure:
as §1

Experiment [6] concerns the target JNK1 (Homo sapiens, UniProt P45983). The following applies: read-out: 50% inhibitory activity against other kinases: JNK1. The procedure:
as §1

Experiment [7] addresses MEK5 (Homo sapiens, UniProt Q13163). The following applies: read-out: 50% inhibitory activity against other kinases: MEK5. As to the method:
as §1

The target in experiment [8] is T1, TTK (Homo sapiens, UniProt P33981).
T1 sequence (P33981 1-857): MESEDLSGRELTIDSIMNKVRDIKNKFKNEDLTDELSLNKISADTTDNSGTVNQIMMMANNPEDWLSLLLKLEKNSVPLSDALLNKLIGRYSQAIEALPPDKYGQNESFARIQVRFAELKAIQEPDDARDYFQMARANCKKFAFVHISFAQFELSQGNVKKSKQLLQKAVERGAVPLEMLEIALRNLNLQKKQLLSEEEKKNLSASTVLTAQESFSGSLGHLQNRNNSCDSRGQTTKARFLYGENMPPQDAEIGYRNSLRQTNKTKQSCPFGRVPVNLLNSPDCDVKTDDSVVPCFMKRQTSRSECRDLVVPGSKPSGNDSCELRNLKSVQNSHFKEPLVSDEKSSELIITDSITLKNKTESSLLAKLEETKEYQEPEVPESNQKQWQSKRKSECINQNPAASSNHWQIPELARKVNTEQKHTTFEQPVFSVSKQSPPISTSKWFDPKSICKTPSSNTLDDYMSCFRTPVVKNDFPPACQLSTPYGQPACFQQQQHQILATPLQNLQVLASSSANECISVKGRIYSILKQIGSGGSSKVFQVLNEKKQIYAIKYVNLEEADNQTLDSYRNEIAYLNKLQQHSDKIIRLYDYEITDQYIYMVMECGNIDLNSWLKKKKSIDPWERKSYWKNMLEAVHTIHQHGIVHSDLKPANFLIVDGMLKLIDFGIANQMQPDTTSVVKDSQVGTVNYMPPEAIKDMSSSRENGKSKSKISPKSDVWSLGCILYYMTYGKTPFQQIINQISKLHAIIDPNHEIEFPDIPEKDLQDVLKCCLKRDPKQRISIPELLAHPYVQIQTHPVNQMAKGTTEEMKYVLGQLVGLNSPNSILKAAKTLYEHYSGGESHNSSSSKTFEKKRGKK
The following applies: read-out: 50% inhibitory activity against other kinases: TTK. As to the method:
as §1

Experiment [9] has as its target T2, IKKβ (Homo sapiens, UniProt O14920).
T2 sequence (O14920 1-756): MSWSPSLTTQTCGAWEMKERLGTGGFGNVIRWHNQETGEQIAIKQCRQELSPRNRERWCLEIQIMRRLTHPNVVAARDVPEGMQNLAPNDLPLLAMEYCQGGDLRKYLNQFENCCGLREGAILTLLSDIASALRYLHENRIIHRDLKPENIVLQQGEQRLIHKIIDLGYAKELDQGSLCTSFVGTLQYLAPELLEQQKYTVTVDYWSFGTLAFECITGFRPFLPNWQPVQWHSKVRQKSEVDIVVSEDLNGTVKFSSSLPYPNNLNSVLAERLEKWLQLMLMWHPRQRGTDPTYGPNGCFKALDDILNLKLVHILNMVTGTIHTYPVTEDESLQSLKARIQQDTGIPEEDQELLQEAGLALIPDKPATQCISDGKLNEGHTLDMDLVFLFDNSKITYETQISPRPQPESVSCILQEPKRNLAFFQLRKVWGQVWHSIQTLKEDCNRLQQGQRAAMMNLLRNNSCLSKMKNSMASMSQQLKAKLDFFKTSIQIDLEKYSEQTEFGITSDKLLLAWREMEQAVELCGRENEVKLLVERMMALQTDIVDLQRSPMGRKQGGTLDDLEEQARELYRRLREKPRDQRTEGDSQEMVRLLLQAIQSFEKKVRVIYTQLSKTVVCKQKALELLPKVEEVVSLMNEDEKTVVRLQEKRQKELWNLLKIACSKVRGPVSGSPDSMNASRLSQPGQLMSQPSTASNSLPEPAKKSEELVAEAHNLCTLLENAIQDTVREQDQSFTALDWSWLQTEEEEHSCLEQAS
The settings on record: read-out: 50% inhibitory activity against other kinases: IKKβ. The procedure:
as §1

Experiment [10] addresses PKCθ (Homo sapiens, UniProt Q04759). The following applies: read-out: 50% inhibitory activity against other kinases: PKCθ. As to the method:
as §1

Experiment [11] addresses TAK1 (Homo sapiens, UniProt O43318). The following applies: read-out: 50% inhibitory activity against other kinases: TAK1. As to the method:
as §1

Experiment [12] addresses ASK1 (Homo sapiens, UniProt Q99683). The settings on record: read-out: 50% inhibitory activity against other kinases: ASK1. The procedure: as §1
Experiment [13] concerns the target MEKK1 (Homo sapiens, UniProt Q13233). The settings on record: read-out: 50% inhibitory activity against other kinases: MEKK1. As to the method:
as §1

Experiment [14] addresses p38α (Homo sapiens, UniProt Q16539). The following applies: read-out: 50% inhibitory activity against other kinases: p38α. As to the method:
as §1

Experiment [15] has as its target B-RAF (Homo sapiens, UniProt P15056). The settings on record: read-out: 50% inhibitory activity against other kinases: B-RAF. The procedure:
as §1

A value given as a limit tells only on which side of the number the result lay.

ASK1, sequence (Q99683 whole entry): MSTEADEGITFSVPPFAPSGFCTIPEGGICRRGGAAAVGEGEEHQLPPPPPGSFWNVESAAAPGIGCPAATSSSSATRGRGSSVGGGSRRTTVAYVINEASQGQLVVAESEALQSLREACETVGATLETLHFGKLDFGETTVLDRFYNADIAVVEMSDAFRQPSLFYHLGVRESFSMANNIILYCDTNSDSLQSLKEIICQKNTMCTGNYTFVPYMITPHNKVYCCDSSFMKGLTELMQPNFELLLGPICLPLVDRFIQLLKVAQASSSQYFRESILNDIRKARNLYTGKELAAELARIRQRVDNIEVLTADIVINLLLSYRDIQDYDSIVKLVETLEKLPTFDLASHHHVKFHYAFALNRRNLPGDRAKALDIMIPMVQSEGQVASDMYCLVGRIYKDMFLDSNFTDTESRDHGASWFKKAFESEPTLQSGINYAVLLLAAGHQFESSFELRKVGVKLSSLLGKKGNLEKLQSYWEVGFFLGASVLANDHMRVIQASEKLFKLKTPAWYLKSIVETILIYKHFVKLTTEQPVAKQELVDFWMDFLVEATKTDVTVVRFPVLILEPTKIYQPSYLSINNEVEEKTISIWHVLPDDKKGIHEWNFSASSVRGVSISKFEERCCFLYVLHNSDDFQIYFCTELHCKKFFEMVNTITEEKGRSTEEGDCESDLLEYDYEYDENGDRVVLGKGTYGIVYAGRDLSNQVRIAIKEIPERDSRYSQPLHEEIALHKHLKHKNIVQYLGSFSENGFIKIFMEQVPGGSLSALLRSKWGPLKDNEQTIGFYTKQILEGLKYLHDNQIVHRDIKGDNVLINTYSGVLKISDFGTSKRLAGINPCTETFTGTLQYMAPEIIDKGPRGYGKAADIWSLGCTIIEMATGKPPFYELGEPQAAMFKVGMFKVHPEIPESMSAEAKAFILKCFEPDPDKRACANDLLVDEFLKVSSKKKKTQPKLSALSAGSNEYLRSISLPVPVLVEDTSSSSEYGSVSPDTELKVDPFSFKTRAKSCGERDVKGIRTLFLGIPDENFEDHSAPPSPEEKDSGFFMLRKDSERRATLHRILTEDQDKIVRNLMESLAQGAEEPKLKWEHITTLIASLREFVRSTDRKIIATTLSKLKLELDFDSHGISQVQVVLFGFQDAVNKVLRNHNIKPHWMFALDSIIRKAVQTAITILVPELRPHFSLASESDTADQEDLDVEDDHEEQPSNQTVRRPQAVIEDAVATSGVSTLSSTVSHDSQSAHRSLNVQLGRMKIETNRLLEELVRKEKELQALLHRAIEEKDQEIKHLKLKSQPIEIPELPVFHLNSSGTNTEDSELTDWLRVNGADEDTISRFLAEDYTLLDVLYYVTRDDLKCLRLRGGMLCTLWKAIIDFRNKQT
MEKK1, sequence (Q13233 whole entry, species assumed): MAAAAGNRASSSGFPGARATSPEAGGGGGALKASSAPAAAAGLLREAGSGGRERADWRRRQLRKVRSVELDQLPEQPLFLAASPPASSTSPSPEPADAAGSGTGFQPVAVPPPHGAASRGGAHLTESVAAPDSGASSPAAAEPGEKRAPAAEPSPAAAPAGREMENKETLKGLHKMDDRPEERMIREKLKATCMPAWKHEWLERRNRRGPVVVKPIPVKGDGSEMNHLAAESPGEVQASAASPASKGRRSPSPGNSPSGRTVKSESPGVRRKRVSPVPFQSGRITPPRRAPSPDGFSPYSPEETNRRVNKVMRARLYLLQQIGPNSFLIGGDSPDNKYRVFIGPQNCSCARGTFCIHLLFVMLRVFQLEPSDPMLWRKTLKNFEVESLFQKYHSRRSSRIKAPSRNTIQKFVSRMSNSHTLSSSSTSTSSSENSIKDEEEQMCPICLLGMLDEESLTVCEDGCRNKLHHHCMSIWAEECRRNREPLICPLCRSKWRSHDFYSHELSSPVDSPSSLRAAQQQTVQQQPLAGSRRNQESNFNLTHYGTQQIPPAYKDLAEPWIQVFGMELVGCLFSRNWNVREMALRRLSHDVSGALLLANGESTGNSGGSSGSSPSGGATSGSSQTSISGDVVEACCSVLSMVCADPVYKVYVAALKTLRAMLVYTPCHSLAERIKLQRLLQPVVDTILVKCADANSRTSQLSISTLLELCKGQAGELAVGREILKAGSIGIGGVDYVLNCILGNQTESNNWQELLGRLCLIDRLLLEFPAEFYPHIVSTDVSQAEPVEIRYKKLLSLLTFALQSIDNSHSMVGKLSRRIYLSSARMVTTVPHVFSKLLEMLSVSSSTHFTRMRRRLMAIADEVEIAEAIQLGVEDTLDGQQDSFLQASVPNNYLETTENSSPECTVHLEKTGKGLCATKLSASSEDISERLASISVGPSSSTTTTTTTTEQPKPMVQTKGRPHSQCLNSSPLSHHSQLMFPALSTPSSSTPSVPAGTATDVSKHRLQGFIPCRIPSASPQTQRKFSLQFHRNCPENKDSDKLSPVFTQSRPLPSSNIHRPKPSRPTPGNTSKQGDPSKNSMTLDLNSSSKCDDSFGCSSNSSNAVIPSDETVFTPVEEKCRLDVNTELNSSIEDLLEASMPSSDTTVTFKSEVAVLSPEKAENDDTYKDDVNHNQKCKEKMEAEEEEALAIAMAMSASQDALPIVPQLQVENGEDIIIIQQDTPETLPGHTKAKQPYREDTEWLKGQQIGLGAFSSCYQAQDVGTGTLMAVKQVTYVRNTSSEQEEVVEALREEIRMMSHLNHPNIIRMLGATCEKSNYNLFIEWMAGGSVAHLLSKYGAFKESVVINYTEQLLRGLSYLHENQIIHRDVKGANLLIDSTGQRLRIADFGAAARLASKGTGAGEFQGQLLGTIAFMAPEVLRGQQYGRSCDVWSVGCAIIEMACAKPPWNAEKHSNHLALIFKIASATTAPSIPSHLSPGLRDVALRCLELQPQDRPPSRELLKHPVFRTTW
PLK1, sequence (P53350 whole entry): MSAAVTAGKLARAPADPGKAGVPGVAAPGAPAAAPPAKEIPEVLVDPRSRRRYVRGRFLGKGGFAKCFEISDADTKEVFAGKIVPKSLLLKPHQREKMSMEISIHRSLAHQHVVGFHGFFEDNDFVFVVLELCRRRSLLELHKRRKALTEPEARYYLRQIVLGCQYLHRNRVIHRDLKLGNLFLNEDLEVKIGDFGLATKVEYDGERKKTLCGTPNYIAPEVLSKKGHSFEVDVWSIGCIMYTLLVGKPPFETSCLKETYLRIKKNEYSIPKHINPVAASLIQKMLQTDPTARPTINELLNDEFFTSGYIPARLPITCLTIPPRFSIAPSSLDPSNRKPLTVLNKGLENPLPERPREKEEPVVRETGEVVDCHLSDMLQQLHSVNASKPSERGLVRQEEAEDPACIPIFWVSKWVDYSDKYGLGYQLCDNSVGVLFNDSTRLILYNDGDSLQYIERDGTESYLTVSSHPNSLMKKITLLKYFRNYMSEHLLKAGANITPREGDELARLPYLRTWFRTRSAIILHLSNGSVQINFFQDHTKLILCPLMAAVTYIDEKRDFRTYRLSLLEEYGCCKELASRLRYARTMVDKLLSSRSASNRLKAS
p38α, sequence (Q16539 whole entry): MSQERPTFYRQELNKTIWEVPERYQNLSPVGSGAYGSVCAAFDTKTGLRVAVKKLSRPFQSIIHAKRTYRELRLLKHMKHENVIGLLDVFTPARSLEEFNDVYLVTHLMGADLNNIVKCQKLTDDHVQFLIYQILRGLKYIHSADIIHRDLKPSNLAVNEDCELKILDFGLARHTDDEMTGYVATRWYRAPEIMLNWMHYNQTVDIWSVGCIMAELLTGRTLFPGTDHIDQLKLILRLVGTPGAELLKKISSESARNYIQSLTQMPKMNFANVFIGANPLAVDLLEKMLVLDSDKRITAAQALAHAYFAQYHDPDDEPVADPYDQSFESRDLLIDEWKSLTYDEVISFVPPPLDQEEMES
PKCθ, sequence (Q04759 whole entry): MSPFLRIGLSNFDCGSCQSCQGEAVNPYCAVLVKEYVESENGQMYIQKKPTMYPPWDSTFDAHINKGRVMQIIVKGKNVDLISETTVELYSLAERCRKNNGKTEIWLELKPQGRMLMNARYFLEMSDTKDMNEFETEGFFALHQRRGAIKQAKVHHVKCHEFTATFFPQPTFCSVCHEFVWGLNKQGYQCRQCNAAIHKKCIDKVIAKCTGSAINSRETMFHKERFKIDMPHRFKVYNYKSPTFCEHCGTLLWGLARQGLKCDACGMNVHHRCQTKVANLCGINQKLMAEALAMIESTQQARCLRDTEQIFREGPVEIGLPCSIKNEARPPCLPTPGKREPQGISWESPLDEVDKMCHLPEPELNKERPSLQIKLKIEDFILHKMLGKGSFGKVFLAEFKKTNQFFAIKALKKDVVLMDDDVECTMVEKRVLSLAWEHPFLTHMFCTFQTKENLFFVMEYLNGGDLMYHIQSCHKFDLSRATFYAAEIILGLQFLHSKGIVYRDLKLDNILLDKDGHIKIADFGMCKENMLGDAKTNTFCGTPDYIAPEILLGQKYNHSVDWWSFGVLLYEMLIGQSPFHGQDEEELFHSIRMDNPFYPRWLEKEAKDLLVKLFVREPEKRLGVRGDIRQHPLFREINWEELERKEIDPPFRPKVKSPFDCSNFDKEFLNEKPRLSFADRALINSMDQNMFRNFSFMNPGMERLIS

`COc1ccc(-c2coc3ccc(-c4nnc(SC)o4)cc23)cc1` [Example 165, 2-[3-(4-methoxyphenyl)-1-benzofuran-5-yl]-5-(methylthio)-1,3,4-oxadiazole]: the IC50 was 0.19 µM in experiment [1]; > 10 µM in experiment [2]; > 10 µM in experiment [3]; > 10 µM in [4]; > 10 µM in experiment [5]; > 10 µM in experiment [6]. For the same compound, the IC50 in experiment [7], in [8], in experiment [9], in experiment [10], in experiment [11] and in experiment [12] was > 10 µM in each case. In addition, the IC50 in experiment [13], in experiment [14] and in experiment [15] was > 10 µM in each case.
As for `COc1ccc(CSc2nnc(-c3ccc4c(c3)OCO4)o2)cc1F` [Reference Example 71, 2-(1,3-benzodioxol-5-yl)-5-[(3-fluoro-4-methoxybenzyl)thio]-1,3,4-oxadiazole, reference compound], the IC50 in [2], in experiment [3], in experiment [4], in experiment [5], in experiment [6] and in experiment [7] was > 10 µM in each case. Further, the IC50 in [8], in experiment [9], in experiment [10], in experiment [11], in experiment [12] and in [13] was > 10 µM in each case. Besides, the IC50 in experiment [14] and in experiment [15] was > 10 µM each time.
As for `COc1ccc(CSc2nnc(-c3ccnc(N)c3)o2)cc1F` [Example 209, 4-[5-[(3-fluoro-4-methoxybenzyl)thio]-1,3,4-oxadiazol-2-yl]pyridin-2-amine], the IC50 is 0.14 µM in [1]; > 10 µM in experiment [2]; > 10 µM in experiment [3]; > 10 µM in experiment [4]; > 10 µM in experiment [5]; > 10 µM in [6]. Also, the IC50 in experiment [7], in experiment [8], in experiment [9], in experiment [10], in experiment [11] and in [12] was > 10 µM in each case. Moreover, the IC50 in experiment [13], in experiment [14] and in experiment [15] was > 10 µM each time.

These data come from patent US8492378B2, “GSK-3β inhibitor” (Takeda Pharmaceutical Company Limited, priority 2006, dated 2013).
